Test results published in ChEMBL document CHEMBL4321786, “Discovery of Small Molecule Renal Outer Medullary Potassium (ROMK) Channel Inhibitors: A Brief History of Medicinal Chemistry Approaches To Develop Novel Diuretic Therapeutics” (J Med Chem, 2019).

What was measured:
[1] = target: T1, ATP-sensitive inward rectifier potassium channel 1 (Homo sapiens, UniProt P48048); experiment: Inhibition of human ROMK1 expressed in HEK293 cells by Tl+ flux assay; format: cell-based
T1 sequence (P48048 whole entry): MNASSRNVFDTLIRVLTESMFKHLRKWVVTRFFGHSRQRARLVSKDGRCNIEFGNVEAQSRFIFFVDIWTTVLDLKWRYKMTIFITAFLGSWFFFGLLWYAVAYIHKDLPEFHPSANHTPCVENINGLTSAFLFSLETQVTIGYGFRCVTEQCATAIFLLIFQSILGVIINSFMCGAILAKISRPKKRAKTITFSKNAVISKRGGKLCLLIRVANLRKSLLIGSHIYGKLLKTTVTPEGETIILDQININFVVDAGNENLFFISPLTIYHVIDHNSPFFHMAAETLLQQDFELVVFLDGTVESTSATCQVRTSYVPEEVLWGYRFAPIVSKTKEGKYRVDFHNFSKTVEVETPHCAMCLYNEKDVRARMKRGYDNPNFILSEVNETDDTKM

[2] = target: Voltage-gated inwardly rectifying potassium channel KCNH2 (Homo sapiens, UniProt Q12809); experiment: Inhibition of human ERG
[3] = target: T2, ATP-sensitive inward rectifier potassium channel 1 (Rattus norvegicus, UniProt P35560); experiment: Inhibition of rat ROMK1 expressed in HEK293 cells by Tl+ flux assay; format: cell-based
T2 sequence (P35560 whole entry): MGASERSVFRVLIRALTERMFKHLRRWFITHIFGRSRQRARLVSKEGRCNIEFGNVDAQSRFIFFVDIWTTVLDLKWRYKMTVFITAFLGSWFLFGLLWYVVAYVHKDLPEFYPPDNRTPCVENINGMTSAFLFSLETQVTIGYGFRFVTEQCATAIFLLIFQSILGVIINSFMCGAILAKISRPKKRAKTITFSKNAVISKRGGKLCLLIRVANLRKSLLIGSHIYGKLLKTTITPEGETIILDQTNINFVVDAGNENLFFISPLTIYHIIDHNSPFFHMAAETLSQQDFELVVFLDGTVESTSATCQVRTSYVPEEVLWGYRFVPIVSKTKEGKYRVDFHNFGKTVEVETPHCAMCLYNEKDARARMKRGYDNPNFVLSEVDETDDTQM

[4] = target: T3, Inward rectifier potassium channel 13 (Homo sapiens) (UniProt O60928); experiment: Inhibition human Kir7.1 expressed in HEK293 cells at 10 uM by whole cell patch clamp assay relative to control; format: cell-based
T3 sequence (whole entry): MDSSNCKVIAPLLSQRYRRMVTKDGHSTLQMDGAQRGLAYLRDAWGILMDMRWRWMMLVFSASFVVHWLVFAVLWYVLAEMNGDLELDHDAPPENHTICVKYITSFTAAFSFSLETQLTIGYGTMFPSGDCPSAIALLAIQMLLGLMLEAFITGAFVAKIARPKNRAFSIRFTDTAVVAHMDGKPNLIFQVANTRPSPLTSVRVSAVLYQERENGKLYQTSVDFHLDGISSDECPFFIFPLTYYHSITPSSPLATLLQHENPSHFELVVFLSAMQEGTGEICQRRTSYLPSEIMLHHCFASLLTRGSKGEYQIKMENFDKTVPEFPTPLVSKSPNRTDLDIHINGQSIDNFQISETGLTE

[5] = target: T1, ATP-sensitive inward rectifier potassium channel 1; experiment: Inhibition of human ROMK1 expressed in CHO cells by Tl+ flux assay; format: cell-based
[6] = Stability in rat liver microsomes assessed as parent compound remaining level; format: ADME, Microsome
[7] = Protein binding in human plasma; format: ADME, cell-free; settings: read-out: PPB (converted)
[8] = system: HEK293; experiment: Inhibition of hamster SUR1/mouse Kir6.2 expressed in HEK293 cells at 10 uM by patch clamp electrophysiology assay relative to control; format: cell-based
[9] = Stability in human liver microsomes assessed as parent compound remaining level; format: ADME, Microsome
[10] = target: T4, D(4) dopamine receptor (Homo sapiens) (UniProt P21917); experiment: Inhibition of DRD4 (unknown origin) at 10 uM by radioligand displacement assay relative to control
T4 sequence (whole entry): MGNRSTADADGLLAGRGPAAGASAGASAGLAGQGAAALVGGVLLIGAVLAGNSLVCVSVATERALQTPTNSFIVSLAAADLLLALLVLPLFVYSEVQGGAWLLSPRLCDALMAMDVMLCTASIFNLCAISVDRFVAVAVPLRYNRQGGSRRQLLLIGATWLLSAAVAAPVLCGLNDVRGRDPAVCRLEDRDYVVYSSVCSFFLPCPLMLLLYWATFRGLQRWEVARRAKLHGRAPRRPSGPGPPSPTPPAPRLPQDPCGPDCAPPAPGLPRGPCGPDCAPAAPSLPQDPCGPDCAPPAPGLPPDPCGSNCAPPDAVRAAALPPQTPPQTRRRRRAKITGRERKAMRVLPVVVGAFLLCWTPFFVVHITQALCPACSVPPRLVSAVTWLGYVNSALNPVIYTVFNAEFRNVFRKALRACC

[11] = system: HEK293; experiment: Inhibition of hamster SUR1/mouse Kir6.2 expressed in HEK293 cells at 50 uM by patch clamp electrophysiology assay relative to control; format: cell-based
[12] = Inhibition of GABA receptor (unknown origin) by radioligand displacement assay; design: species or system Homo sapiens
[13] = target: Sodium-dependent dopamine transporter (Homo sapiens) (UniProt Q01959); experiment: Inhibition of dopamine transporter (unknown origin) at 10 uM by radioligand displacement assay relative to control
[14] = species: Homo sapiens; experiment: Inhibition of GABA receptor (unknown origin) at 10 uM by radioligand displacement assay relative to control
[15] = Protein binding in rat plasma; format: ADME, cell-free; settings: read-out: PPB (converted)
[16] = target: Sodium-dependent noradrenaline transporter (Homo sapiens) (UniProt P23975); experiment: Inhibition of norepinephrine transporter (unknown origin) at 10 uM by radioligand displacement assay relative to control
Sodium-dependent noradrenaline transporter (Homo sapiens), sequence (P23975 whole entry): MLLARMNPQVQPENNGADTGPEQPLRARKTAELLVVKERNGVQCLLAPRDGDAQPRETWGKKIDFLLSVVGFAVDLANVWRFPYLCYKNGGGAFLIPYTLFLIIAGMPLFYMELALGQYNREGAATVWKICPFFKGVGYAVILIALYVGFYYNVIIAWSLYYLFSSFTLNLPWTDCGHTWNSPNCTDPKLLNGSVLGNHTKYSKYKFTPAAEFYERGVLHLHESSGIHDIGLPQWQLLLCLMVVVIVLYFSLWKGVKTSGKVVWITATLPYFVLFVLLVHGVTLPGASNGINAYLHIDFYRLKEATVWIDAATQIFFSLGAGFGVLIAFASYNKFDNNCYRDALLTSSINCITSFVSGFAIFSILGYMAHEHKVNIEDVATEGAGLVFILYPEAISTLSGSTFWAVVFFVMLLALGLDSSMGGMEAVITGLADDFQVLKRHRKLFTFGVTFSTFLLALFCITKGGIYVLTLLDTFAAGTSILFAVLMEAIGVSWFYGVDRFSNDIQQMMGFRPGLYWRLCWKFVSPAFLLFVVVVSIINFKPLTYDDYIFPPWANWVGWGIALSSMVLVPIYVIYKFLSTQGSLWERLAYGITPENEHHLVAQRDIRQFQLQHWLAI

Voltage-gated inwardly rectifying potassium channel KCNH2, sequence (Q12809 whole entry): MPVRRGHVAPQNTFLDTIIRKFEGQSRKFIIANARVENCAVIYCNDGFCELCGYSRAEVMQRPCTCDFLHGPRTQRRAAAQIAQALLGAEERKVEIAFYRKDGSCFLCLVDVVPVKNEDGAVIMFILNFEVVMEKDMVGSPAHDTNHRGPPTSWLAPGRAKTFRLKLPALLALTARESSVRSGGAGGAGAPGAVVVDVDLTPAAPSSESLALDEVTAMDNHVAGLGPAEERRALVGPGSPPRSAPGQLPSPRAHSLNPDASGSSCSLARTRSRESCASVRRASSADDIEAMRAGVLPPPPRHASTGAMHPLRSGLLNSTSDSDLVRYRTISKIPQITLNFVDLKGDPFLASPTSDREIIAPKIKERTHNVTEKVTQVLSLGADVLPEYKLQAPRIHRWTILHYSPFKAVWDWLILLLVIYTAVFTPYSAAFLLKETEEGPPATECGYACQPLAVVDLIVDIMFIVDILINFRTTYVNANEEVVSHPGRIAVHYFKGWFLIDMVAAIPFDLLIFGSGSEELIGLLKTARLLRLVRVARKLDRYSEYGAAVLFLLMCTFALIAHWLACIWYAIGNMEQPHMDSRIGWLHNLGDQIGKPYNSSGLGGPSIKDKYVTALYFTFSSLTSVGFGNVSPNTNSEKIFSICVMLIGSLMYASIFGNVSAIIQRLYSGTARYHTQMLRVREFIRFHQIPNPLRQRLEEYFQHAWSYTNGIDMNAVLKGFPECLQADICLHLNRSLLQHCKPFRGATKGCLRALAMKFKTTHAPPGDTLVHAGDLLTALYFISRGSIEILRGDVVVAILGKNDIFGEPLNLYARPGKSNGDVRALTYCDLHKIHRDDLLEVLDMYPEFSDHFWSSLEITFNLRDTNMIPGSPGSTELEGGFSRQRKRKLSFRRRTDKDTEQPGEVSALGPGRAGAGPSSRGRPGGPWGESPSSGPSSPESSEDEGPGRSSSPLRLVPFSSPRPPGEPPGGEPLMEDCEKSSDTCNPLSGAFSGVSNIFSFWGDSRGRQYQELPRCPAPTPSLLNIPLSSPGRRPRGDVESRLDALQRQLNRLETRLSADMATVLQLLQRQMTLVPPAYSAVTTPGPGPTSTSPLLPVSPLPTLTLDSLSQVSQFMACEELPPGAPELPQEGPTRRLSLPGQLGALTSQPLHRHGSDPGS
Sodium-dependent dopamine transporter (Homo sapiens), sequence (Q01959 whole entry): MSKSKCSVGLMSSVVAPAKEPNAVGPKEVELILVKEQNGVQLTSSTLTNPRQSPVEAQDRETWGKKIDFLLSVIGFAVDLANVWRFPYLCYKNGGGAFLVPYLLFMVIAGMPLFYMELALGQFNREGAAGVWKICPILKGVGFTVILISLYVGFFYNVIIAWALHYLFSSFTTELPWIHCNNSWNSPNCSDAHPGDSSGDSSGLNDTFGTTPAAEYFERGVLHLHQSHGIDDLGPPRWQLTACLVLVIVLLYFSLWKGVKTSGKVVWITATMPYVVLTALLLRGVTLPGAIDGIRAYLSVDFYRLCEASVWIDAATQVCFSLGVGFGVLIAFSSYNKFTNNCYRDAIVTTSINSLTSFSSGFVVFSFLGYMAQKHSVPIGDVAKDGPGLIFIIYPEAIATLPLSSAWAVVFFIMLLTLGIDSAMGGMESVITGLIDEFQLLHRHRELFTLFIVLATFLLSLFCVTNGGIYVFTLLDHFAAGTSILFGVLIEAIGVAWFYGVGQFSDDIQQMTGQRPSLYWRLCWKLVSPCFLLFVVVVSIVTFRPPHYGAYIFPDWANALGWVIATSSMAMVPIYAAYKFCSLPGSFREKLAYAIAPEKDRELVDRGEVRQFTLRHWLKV

`O=C1OCCc2cc([C@@H]3CN4CCN(C(=O)Cc5ccc(-n6cnnn6)cc5)C[C@H]4CO3)ccc21` gave an IC50 [1] of 57 nM and an IC50 [2] of 75900 nM.
For `Cc1c(C#N)cccc1[C@@H]1CN2CCN(C(=O)Cc3ccc(-n4cnnn4)cc3)C[C@H]2CO1`, the IC50 [1] was 60 nM and the IC50 [2] was 14800 nM.
With `C[C@H]1CC2(CCN(C[C@@H](O)c3ccc4c(ccc5nnnn54)c3)CC2)C(=O)N1C1=CC(=O)OC1` the IC50 [3] was 10 nM.
Work on `O=[N+]([O-])c1ccc(CN2CCOCCOCCN(Cc3ccc([N+](=O)[O-])cc3)CCOCC2)cc1` yielded an inhibition [4] of 69% and an IC50 [3] of 294 nM.
Molecule `CC1=C(N2CCC3(CCN(C[C@@H](O)c4ccc5c(c4Cl)Cn4nnnc4-5)CC3)C2=O)COC1=O` has an IC50 [3] of 9 nM.
`Cc1cc(-c2ncc(CNC[C@H](O)c3ccc4c(c3C)COC4=O)s2)ccc1C#N` gave an IC50 [5] of 6.6 nM.
In the case of `O=[N+]([O-])c1ccc2nc(COCc3nc4ccc([N+](=O)[O-])cc4[nH]3)[nH]c2c1`, the Stability [6] is reported as 60%, the fraction unbound [7] is reported as 0.0086 and the inhibition [8] is reported as 17%. The Stability [9] was 80%, the inhibition [10] was > 50% and the inhibition [11] was 28%. For the same molecule, the IC50 [12] was 6200 nM, the inhibition [13] was > 50% and the inhibition [14] was > 50%. The fraction unbound [15] was 0.0161, the inhibition [16] was > 50% and the IC50 [3] was 240 nM.
Molecule `CC1=C(N2CCC3(CCN(CCc4ccc5c(c4)Cn4nnnc4-5)CC3)C2=O)COC1=O` has an IC50 [3] of 6 nM.
`CCOc1cc(-n2cc(CNC[C@H](O)c3ccc4c(c3C)COC4=O)cn2)ccc1C#N` gave an IC50 [5] of 6.2 nM.
Molecule `CC1=C(N2CCC3(CCN(C[C@H](O)c4ccc5c(c4)Cn4nnnc4-5)C[C@H]3F)C2=O)COC1=O` (stereo not given in full) has an IC50 [3] of 43 nM.
In the case of `Cc1c(C(O)CN2CCc3nc(-n4ncc5c(C#N)cccc54)ncc3C2)ccc2c1COC2=O` (stereo not given), the IC50 [5] is reported as 38 nM.
`CC1=C(N2CCC3(CCN(CC(CO)c4ccc5c(ccc6nnnn65)c4)CC3)C2=O)COC1=O` (stereo not given) showed an IC50 [3] of 18 nM.
Molecule `Cc1c([C@@H]2CN(Cc3ccc(-n4cc(C#N)cn4)cn3)CCN2)ccc2c1COC2=O` has an IC50 [5] of 8.8 nM.
`O=C1OCc2cc(C3CN4CCN(C(=O)Cc5ccc(-n6cnnn6)cc5)CC4CO3)ccc21` (stereo not given) gave an IC50 [1] of 65 to 105 nM and an IC50 [2] of 21100 to 59400 nM.
Work on `O=[N+]([O-])c1ccc2[nH]c(CCCc3nc4cc([N+](=O)[O-])ccc4[nH]3)nc2c1` yielded an IC50 [3] of 8000 nM.
